TGI and GI50 data for 13 compounds are collected here from PubChem BioAssay (NCI).

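Values below derive from 48-hour exposures of cells grown in 96-well plates, with endpoints linearly interpolated between the two concentrations bracketing the appropriate inhibition level. Here, GI50 denotes the concentration required for 50% inhibition of growth. TGI marks complete inhibition of growth.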

Holding throughout (experiment): growth of human tumour cells (NCI), 48 h
For test [1], the system named is SF-295 CNS.
In test [2] the test system is MALME-3M melanoma.
The test system of test [3] is SK-MEL-5 melanoma.
Test [4] has as its system HL-60(TB) leukemia.
Test [5] deals with NCI-H460 lung.
In test [6] the test system is IGROV1 ovarian.
Test [7] deals with K-562 leukemia.
Test [8] relates to HOP-62 NSCLC.
For test [9], the system named is MOLT-4 leukemia.
Test [10] deals with A549 NSCLC.

As for `CC1(C(=O)O)CCCC1C(=O)O` (centres undefined), the TGI in test [1], in [2], in test [3], in [4], in test [5] and in [6] was above 100 µM each time. In addition, the TGI in test [7], in [8], in test [9] and in [10] was above 100 µM each time.

Regarding `N#Cc1c(-c2ccc(F)cc2)nc(N/N=C/c2c[nH]c3ccccc23)nc1N1CCOCC1`, the GI50 is 1.89 µM in [1]; 2.75 µM in test [2]; 10.9 µM in test [3]; 0.563 µM in test [4]; 3.48 µM in [5]; 12.8 µM in [6]. The GI50 in [7] was 1.79 µM; in test [9], 1.6 µM; in [10] it was 3.99 µM. In addition, the TGI is 4.29 µM in [1]; 4.76 µM in [2]; 25.9 µM in test [3]; 7.57 µM in test [4]; 25.2 µM in test [5]; 79.7 µM in test [6]. The TGI was 14.2 µM in [7], 9.63 µM in [9] and 69.9 µM in test [10].

In the case of `CCN1CCC(O)(C(C(=O)O)c2ccccc2)CC1` (centres undefined), the TGI in test [1], in [2], in test [3], in test [4], in [5] and in test [6] was above 100 µM throughout. The TGI in test [7], in test [8] and in test [10] was above 100 µM in each case.

Consider `COc1c(Br)cc(CC(N)=O)c(O)c1Br`, for which the TGI in [1], in test [2], in [3], in test [4], in test [6] and in [7] was above 100 µM each time. Besides, the TGI in test [8], in test [9] and in test [10] was above 100 µM throughout.

Regarding `OC1(c2ccc(Cl)cc2)c2ccc3ccccc3c2C2=N[C@H]3CCCC[C@@H]3N21` (some centres undefined), the TGI is 18.1 µM in test [1]; 0.93 µM in [2]; above 100 µM in test [3]; above 100 µM in test [4]; above 100 µM in test [5]; above 100 µM in test [6]. Further, the TGI in [7] is above 100 µM; in [8] it was 11.5 µM; in [9], above 100 µM; in [10], above 100 µM.

For `CCC(C(=O)c1ccc(OC)c(OC)c1)N(C(=O)C(F)(F)F)C(C)c1ccccc1` (centres undefined), the TGI in [1], in test [2], in test [3], in [4], in [5] and in [6] was above 100 µM throughout. The TGI in test [7], in test [8], in [9] and in test [10] was above 100 µM in each case.

Turning to `NC(N)=Nc1ncccc1[N+](=O)[O-]`, the TGI was above 100 µM in test [1]; above 88 µM in [2]; above 100 µM in [3]; 44.4 µM in test [4]; above 100 µM in [5]; above 100 µM in test [6]. The TGI in test [7], in test [8], in test [9] and in test [10] was above 100 µM each time.

For the compound `COc1cc(/C=C\C(=O)O)ccc1OCc1ccccc1`, the TGI in test [1], in test [2], in test [3], in [4], in test [5] and in test [6] was above 100 µM each time. Moreover, the TGI in test [7], in test [8], in test [9] and in test [10] was above 100 µM in each case.

For `O=c1oc2cc(O)ccc2c(O)c1C(c1ccc(C(c2c(O)c3ccc(O)cc3oc2=O)c2c(O)c3ccc(O)cc3oc2=O)cc1)c1c(O)c2ccc(O)cc2oc1=O`, the TGI in test [1], in test [2], in test [3], in [4], in test [5] and in [6] was above 100 µM each time. For the same compound, the TGI in [7], in [8], in test [9] and in [10] was above 100 µM throughout.

As for `O=C(N/N=C/c1cc(Br)cc(Br)c1[O-])c1ccccc1O.O=C(N/N=C/c1cc(Br)cc(Br)c1[O-])c1ccccc1O.[Fe+2]`, the TGI in [1] stood at 15.8 µM; in test [2] it was 37.5 µM; in [3] it was 23.4 µM; in test [4], 11.2 µM; in [5] it was 22.2 µM; in [6], 41.4 µM. Moreover, the TGI in test [8] was found to be 8.53 µM; in test [9], 19.8 µM; in test [10], 29.3 µM.

As to `O=C(CC1=NCCN1)c1ccccc1`, the TGI in [1] was above 750 µM; in test [2], above 750 µM; in [3], above 750 µM; in test [4], above 750 µM; in [5], above 511 µM; in test [6] it was above 750 µM. In addition, the TGI is above 750 µM in test [7], above 750 µM in test [8], above 750 µM in test [9] and above 285 µM in test [10].

`O=C1C(Cl)N(c2ccccc2[N+](=O)[O-])C1c1c[nH]c2ccccc12` (centres undefined): the TGI in test [1], in test [2], in [3], in test [4], in test [5] and in [6] was above 100 µM each time. The TGI in test [7], in test [8], in test [9] and in test [10] was above 100 µM each time.

In the case of `O=C(Nc1cccc(O)c1)C(=O)C(C(=O)c1ccccc1F)C1OC(=O)c2ccccc21` (centres undefined), the TGI in test [1] is above 100 µM; in test [3] it was above 100 µM; in test [4] it was 87.7 µM; in test [5] it was 94.9 µM; in test [6] it was above 100 µM; in test [7], above 100 µM. The TGI in test [8], in test [9] and in test [10] was above 100 µM in each case.
